Measurements from patent US11034662B2, “Substituted phenothiazines as mitochondrial agents” (ARIZONA BOARD OF REGENTS ON BEHALF OF ARIZONA STATE …, priority 2015, dated 2021).

Experiments:
frataxin = experiment: Frataxin protein expression (Western blot) in FRDA lymphocytes; format: cell-based, human; settings: for level of frataxin (western blot): FRDA lymphocytes, FIG. 9
Experimental: Human mitochondrial disease cell line, Friedreich's ataxia lymphocytes (GM15850) was obtained from Coriell Cell Repositories (Camden, N.J.). Lymphocytes were cultured in RPMI-1640 medium (Gibco, Life Technologies, Grand Island, N.Y.) with 15% fetal calf serum, 2 mM glutamine (HyClone, South Logan, Utah) and 1% penicillin-streptomycin antibiotic supplement (Cellgro, Manassas, Va.). Cells were passaged every other day to maintain them in log phase growth and kept at a nominal concentration of 5-10×10^5 cell/mL. A CoQ10 deficient lymphocyte cell line (GM17932) was obtained from Coriell Cell Repositories. A nutrient sensitized screening strategy to identify methylene blue analogues that function within the mitochondrial respiratory chain was used by growing the CoQ10-deficient or FRDA lymphocytes in galactose containing media to force energy production predominantly through oxidative phosphorylation rather than glycolysis.^1-4 The lymphocytes were cultured in RPMI 1640 glucose free medium (Gibco, Grand Island, N.Y.) supplemented with 25 mM galactose, 2 mM glutamine and 1% penicillin-streptomycin, and 10% dialyzed fetal bovine serum (FBS) (<0.5 μg/mL) (Gemini Bio-Product, West Sacramento, Calif.).
Immortalized normal and FRDA lymphocyte cell lines were seeded at 500,000 cells per/mL (5 mL) in T-25 flask. Cultures were treated with the test compounds and incubated for 24 h. Cells were harvested by centrifugation, washed with saline buffer and then were lysed using 200 μL of lysis buffer (1% triton X-100, 0.1% SDS, Tris-HCl (50 Mm) pH 7.4, 150 mM NaCl, 0.5% sodium deoxycholate, 0.1 mM EDTA) with protease inhibitors (protease cocktail inhibitors (Roche Applied Science) and 1 mM phenylmethylsulfonyl fluoride (Sigma), and incubated on ice for 30 min with periodical mixing. These samples were cleared of insoluble material by centrifugation at 20,000×g for 10 min at 4° C. Total protein concentration was measured by the BCA kit (Thermo Fisher Scientific). NuPAGE LDS Sample Buffer (4×) and NuPAGE Reducing Agent (10×) was added the lysate and they were denatured at 95° C. for 5 min, then equal amounts of lysates ([…]) were used for immunoblotting. Samples were resolved on a 4%-12% SDS-polyacrylamide Bis-Tris gels (Invitrogen) according to the manufacturer's recommendations and then proteins were transferred to nitrocellulose membranes. After blocking with Superblock-TBS (Thermo Fisher Scientific) for 1 hour to inhibit non-specific binding the blot was incubated with anti-frataxin monoclonal antibody (5 μg/mL) (18A5DB1) (Novex®) (Life technologies) overnight at 4° C. to detect endogenous frataxin in FRDA and normal lymphocytes. Following three 5-min washes with TBST, the blots were incubated with horseradish peroxidase-linked secondary […] antibody IgGs (1:10,000, Sigma, in Superblock-TBS) at room temperature for 1 hr. The blots were washed three times for 5 min with TBST, rinsed with deionized H2O, and developed with enhanced chemiluminescence (ECL) (BioRad Chemi-Doc) using West Pico Chemiluminescent Substrate (Pierce Biotechnology).

[1] = test system: bovine heart mitochondrial NADH oxidase activity (complexes I, III and IV); experiment: NADH oxidase activity in bovine heart mitochondria; format: biochemical; settings: complex I completely blocked by rotenone; FIG. 6
Experimental: The effect of the methylene blue analogues on the activities of complexes I, III and IV within the respiratory chain was evaluated using bovine heart mitochondria during the oxidation of their respective substrate (NADH) as described previously. Briefly, a small scale preparation of bovine heart mitochondria was prepared as described before (Smith, A. L (1967), Methods Enzymol. 10, 81). Bovine heart submitochondrial particles (SMPs) were prepared as described by Matsuno-Yagi and stored in a buffer containing 0.25 M sucrose and 10 mM Tris-HCl, pH 7.4, at −80° C. (Matsuno-Yagi, A.; Hatefi, Y. J. (1985) J. Biol. Chem. 260, 11424). SMPs were diluted to 0.5 mg/mL. Mitochondrial complexes I, III, and IV activity were assayed at 30 C and monitored spectrophotometrically using a Beckman Coulter DU-530 (340 nm, ε=6.22 mM^−1 cm^−1). NADH oxidase activity was determined in 50 mM Hepes buffer containing 5 mM MgCl2, pH 7.5, in a total volume of 2.5 mL. The final mitochondrial protein concentration was 30 μg/mL. The initial rates of NADH oxidation were calculated from the linear portion of the traces.

Row | SMILES | level of frataxin (western blot) (frataxin; higher concentration) | level of frataxin (western blot) (frataxin; lower concentration) | frataxin levels (frataxin; general statement, concentration not given) | effect on NADH oxidase activity: redirection of electron flow in the respiratory chain [1]
1 | CN(C)c1ccc2nc3ccc(=[N+](C)C)cc-3sc2c1 [Methylene blue, 3,7-bis(dimethylamino)phenazathionium chloride, reference compound] | did not | slightly increased |  | 
2 | CCCCCCCCCCCCCCCN(CCCC)c1ccc2nc3ccc(=O)cc-3sc2c1 [compound 33, 7-(butyl(pentadecyl)amino)-3H-phenothiazin-3-one] | significantly increased | significantly increased | significantly increased | 
3 | CCCCCCCCCCCCCCCCCc1cc2nc3ccc(N(C)C)cc3sc-2cc1=[N+](C)C [compound 5, N-(7-(dimethylamino)-2-heptadecyl-3H-phenothiazin-3-ylidene)-N-methylmethan-aminium iodide] |  |  |  | able redirect electron flow in the respiratory chain
